# Activity calls are given as the source filed them.
# What was measured:
# [1] = Luminescence Cell-Based Dose Retest to Confirm Inhibitors of Cancer Stem Cells. [Related pubchem assays (depositor defined):AID2717, AID2721]; type: functional; conditions: Homo sapiens
# [2] = DRD fibroblast viability loss – cell-based, non-viral oncogenic, luminescence, dose response (AID 1934); type: functional; conditions: Homo sapiens
# BJ [3] = experiment: growth inhibition of engineered Ras-driven BJ cells – cell-based, alamar blue fluorescence, cherrypicked samples, dose response (AID 2631); type: functional; conditions: Homo sapiens;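 further: confirmatory dose-response assay in RAS-dependent BJ fibroblasts engineered with TERT, LT and ST, with cytotoxicity read by fluorescence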
# BJ [4] = experiment: cells; type: functional, cell-based; conditions: Homo sapiens
# INS1 = experiment: INS-1E survival protection against cytokine death – cell-based, luminescence, retest, dose response (AID 449756); type: functional; conditions: Rattus norvegicus;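 further: cell death triggered by IL-1 beta plus TNF-alpha plus IFN-gamma mixture; protective hits raise ATP signal compared with cytokine alone wells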
# BJ [5] = experiment: BJ-TERT fibroblast viability loss – cell-based, RAS-independent, luminescence, dose response (AID 1933); type: functional; conditions: Homo sapiens
# BJ [6] = experiment: BJ-TERT-LT-ST fibroblast viability loss – cell-based, RAS-independent, luminescence, dose response (AID 1935); type: functional; conditions: Homo sapiens;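 further: BJ fibroblasts immortalized with TERT plus LT and ST oncogenes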
# HEK293 = experiment: cells; type: functional, cell-based; conditions: Homo sapiens
# [7] = target: T1, Nuclear receptor subfamily 0 group B member 1 (Homo sapiens, UniProt P51843); experiment: Luminescence-based cell-based high throughput dose response assay for inhibitors of the orphan nuclear receptor subfamily 0, group B, member 1 (DAX1; NR0B1). [Related pubchem assays (depositor defined):AID504766, AID504790]; type: functional
# T1 sequence (P51843 whole entry): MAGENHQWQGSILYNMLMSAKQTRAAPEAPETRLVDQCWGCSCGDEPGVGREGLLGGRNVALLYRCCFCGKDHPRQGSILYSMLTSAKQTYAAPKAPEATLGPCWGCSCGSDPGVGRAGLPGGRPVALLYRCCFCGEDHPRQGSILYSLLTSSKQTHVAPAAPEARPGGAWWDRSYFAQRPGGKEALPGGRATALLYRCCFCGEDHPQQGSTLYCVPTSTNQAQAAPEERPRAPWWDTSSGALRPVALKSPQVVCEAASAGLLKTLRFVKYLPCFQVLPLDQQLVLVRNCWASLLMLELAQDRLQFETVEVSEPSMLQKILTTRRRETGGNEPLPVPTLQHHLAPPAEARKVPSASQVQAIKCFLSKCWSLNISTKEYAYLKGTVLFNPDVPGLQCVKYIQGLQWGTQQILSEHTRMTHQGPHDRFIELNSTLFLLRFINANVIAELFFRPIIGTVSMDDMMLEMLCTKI
# fMet-Leu-Phe receptor = target: T2, fMet-Leu-Phe receptor (Homo sapiens, UniProt P21462); experiment: formyl peptide receptor binders – dose response (AID 519); type: functional
# T2 sequence (P21462 whole entry): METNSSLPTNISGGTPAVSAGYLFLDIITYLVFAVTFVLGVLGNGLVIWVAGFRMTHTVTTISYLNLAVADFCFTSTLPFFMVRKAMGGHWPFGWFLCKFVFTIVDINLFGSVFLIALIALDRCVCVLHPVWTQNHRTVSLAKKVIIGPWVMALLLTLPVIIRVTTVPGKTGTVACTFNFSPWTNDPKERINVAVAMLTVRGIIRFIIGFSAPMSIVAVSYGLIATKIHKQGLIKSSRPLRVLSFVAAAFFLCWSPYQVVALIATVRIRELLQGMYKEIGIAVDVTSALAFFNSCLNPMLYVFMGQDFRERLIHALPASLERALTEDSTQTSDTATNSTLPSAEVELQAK
# [8] = bead-based luminescence quenchers, dual-tagged ARNT – biochemical, AlphaScreen, cherry-pick, artefact control for ARNT-TACC3 interaction inhibitor project, dose response (AID 651705); type: functional;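 further: AlphaScreen bead proximity signal that flags compounds interfering with the detection technology; potency reflects signal decrease which marks the compound as an assay artifact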
# Nonstructural protein 1 = Nonstructural protein 1 (Influenza A virus, UniProt Q194T2); type: functional, Influenza A virus (A/California/07/2009(H1N1))
# Chain of Nonstructural protein 1 (Q194T2 whole entry): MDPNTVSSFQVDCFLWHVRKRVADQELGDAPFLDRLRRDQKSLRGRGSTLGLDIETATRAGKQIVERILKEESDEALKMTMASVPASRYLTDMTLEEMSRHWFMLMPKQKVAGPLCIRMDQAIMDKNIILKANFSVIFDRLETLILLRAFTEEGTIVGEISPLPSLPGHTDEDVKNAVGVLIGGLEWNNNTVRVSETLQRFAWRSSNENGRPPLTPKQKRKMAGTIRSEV
# cells = type: functional
# Cysteine protease ATG4B = target: T3, Cysteine protease ATG4B (Homo sapiens, UniProt Q9Y4P1); type: functional;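 further: Fluorescence-based dose-response confirmation assay measuring inhibition of ATG4B activity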
# T3 sequence (Q9Y4P1 whole entry): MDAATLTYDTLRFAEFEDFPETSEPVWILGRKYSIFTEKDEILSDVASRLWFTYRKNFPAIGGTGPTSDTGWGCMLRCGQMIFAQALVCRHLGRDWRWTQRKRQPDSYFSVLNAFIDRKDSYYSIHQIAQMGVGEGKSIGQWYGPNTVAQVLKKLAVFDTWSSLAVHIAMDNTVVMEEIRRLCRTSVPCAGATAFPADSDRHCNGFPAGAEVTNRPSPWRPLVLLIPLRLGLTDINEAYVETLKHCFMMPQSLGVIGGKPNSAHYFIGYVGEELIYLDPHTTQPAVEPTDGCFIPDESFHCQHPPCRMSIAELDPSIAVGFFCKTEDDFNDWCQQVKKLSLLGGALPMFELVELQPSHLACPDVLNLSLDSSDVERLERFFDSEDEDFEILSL
# Phospholipase A2 = Phospholipase A2 (Homo sapiens, UniProt P04054); type: functional;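 further: confirmatory dose-response counterscreen on phospholipase A2, testing hits that came from an ultra-high-throughput screen for ATG4B inhibitors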
# Chain of Phospholipase A2 (P04054 whole entry): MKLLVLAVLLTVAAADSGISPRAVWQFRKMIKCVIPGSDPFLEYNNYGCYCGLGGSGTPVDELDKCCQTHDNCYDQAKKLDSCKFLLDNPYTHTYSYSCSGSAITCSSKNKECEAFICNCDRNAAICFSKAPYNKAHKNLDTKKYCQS
# Estrogen receptor = target: T4, Estrogen receptor (Homo sapiens, UniProt P03372);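 further: potency for inhibiting coactivator peptide recruitment to the receptor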
# T4 sequence (P03372 whole entry): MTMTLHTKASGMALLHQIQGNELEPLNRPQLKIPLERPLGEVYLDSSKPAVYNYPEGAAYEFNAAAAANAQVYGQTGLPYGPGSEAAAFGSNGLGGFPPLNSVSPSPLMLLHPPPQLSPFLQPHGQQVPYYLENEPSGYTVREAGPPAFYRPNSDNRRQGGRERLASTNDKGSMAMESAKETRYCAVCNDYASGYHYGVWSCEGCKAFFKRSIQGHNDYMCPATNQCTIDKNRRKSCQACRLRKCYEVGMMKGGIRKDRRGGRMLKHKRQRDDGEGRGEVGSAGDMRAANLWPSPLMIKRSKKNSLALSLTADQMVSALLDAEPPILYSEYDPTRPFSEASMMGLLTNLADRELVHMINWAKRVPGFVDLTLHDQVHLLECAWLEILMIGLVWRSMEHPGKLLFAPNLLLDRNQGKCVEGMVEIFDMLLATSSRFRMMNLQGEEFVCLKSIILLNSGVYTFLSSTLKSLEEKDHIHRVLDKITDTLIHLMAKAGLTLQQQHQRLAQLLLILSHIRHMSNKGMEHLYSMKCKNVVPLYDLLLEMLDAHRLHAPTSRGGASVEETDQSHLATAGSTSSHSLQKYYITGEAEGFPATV
# Fatty acid synthase [9] = target: T5, Fatty acid synthase (Homo sapiens, UniProt P49327); experiment: inhibition of human FAS-TE enzyme activity – biochemical, endpoint fluorescence intensity, uHTS hits, dose response (AID 624327); type: functional;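 further: fluorescence from hydrolysis of an O-methyl fluorescein acyl ester substrate by the enzyme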
# T5 sequence (P49327 whole entry): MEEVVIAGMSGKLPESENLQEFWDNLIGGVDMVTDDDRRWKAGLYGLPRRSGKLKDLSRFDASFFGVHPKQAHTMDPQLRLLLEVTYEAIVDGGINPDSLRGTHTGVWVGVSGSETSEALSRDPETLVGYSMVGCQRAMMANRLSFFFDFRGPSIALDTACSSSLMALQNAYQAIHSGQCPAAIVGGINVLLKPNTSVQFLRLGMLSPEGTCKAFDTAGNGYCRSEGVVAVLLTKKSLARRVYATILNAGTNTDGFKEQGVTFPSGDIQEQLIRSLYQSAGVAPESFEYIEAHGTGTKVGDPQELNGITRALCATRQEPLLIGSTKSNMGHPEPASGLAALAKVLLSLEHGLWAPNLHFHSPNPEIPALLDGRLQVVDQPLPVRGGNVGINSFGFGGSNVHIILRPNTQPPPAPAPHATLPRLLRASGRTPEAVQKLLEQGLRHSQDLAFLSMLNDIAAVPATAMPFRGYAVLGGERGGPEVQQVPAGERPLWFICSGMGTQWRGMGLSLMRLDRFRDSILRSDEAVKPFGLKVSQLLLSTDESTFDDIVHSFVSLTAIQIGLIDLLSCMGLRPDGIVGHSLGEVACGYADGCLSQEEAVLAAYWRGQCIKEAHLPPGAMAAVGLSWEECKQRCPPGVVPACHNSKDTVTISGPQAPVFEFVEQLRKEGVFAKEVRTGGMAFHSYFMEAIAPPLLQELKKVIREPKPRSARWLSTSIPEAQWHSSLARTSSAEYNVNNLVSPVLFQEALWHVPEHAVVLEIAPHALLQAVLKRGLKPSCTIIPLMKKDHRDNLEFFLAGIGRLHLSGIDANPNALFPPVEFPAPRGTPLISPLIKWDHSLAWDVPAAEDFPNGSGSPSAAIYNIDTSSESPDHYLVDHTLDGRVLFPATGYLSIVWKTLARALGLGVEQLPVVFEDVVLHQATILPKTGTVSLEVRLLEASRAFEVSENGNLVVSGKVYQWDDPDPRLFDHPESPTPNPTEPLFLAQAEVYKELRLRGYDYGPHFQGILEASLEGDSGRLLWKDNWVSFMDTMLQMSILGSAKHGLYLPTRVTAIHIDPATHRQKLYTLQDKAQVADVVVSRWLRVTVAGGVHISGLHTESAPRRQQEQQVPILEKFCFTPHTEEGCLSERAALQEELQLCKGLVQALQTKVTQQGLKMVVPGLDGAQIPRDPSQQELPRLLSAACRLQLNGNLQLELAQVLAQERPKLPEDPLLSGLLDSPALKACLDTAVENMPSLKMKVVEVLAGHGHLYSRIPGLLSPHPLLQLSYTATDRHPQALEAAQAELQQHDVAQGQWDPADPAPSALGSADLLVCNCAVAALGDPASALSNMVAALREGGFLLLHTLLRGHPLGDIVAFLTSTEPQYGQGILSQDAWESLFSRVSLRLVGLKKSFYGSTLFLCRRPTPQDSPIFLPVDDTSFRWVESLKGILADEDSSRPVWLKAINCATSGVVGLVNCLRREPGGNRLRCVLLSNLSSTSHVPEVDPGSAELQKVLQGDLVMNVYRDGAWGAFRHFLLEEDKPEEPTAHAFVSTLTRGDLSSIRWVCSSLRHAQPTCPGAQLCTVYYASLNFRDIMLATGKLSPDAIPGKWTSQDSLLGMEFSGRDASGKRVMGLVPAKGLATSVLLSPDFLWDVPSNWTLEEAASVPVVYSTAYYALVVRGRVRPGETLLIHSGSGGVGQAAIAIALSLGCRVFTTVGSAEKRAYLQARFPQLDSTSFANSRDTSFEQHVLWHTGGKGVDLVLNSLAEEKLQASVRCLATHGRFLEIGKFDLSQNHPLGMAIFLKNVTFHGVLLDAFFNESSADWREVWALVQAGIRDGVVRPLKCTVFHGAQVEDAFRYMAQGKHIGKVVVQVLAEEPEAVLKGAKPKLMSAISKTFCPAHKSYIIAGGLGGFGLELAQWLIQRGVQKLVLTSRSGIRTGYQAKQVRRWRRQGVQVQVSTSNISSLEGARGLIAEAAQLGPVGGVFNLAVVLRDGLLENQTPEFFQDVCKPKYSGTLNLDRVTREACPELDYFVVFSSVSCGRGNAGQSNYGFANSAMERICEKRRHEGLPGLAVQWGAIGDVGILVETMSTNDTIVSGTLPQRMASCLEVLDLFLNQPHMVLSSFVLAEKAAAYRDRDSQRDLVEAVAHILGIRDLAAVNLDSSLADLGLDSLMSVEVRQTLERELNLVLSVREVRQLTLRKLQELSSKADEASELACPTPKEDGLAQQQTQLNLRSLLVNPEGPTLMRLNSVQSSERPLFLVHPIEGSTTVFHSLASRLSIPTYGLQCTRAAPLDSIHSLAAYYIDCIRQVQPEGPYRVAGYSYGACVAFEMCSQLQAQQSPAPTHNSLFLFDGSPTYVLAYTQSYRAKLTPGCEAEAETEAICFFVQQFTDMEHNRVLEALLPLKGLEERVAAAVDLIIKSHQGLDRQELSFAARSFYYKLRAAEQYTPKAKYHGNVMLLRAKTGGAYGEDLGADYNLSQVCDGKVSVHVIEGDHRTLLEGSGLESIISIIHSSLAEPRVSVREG
# Fatty acid synthase [10] = target: T5, Fatty acid synthase; experiment: inhibition of human FAS-TE enzyme activity – biochemical, kinetic fluorescence intensity, dose response (AID 624326); type: functional;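 further: rate of fluorescence rise from hydrolysis of a fluorogenic O-methyl fluorescein ester substrate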
# [11] = target: T6, Low molecular weight phosphotyrosine protein phosphatase (Homo sapiens, UniProt P24666); type: functional; conditions: read-out: IC50_Mean;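 further: Dose-response confirmation assay measuring inhibition of LMPTP enzyme activity by fluorescence intensity read-out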
# T6 sequence (P24666 whole entry): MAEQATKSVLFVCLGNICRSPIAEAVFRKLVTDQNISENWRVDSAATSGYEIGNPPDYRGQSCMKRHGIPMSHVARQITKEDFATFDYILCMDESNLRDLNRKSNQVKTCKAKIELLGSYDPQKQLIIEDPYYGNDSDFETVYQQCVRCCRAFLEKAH
# [12] = microbe, parasite or virus in culture; type: functional; conditions: Mycobacterium tuberculosis
# [13] = general mammalian cell viability loss – inhibitor set, cherry-pick, set 2, cytotoxicity control for miR-122 modulator project, dose response (AID 720697); type: functional, cell-based
# [14] = activation of miR-122 Renilla sensor silencing – cell-based, Huh7 psiCHECK-miR122, Renilla luciferase, cherry-picked, dose response (AID 651956); type: functional;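 further: huh7 hepatoma cells stably carrying a psiCHECK-2 miR-122 sensor plasmid; renilla luciferase signal reporting endogenous miR-122 activity after 48 h compound exposure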
# Beta-galactosidase = Beta-galactosidase (Escherichia coli, UniProt Q8VNN2); experiment: Dose response counterscreen for EBI2 assay utilizing the enzyme, b-galactosidase.; type: functional
# Chain of Beta-galactosidase (Q8VNN2 whole entry): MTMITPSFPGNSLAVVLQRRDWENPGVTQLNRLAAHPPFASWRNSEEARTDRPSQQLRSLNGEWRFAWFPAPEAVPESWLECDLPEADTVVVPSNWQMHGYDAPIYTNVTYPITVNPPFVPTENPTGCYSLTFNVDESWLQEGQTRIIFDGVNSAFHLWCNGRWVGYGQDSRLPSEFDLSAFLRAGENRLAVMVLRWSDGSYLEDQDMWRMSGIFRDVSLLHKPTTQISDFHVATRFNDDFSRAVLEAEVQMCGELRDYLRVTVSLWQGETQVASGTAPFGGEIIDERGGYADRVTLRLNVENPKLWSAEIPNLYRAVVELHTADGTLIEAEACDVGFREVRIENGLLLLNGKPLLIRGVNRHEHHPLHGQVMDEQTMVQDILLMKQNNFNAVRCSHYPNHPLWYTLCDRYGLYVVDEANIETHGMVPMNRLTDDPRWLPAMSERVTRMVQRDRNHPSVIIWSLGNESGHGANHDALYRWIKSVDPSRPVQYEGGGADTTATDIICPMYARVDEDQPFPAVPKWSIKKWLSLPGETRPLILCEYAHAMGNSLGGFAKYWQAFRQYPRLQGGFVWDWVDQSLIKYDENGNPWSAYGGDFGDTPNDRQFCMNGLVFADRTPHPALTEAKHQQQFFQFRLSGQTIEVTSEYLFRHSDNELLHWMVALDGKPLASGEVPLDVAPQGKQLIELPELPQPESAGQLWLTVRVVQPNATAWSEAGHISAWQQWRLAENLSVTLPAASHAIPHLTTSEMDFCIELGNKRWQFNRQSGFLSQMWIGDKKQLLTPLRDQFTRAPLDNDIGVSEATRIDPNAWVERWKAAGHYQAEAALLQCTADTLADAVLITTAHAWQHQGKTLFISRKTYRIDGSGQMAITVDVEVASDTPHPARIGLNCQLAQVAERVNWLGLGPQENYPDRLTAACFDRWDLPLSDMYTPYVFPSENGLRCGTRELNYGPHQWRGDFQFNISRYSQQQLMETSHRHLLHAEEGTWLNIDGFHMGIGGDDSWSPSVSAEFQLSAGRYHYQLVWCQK
# Estrogen receptor beta [15] = target: T7, Estrogen receptor beta (Homo sapiens, UniProt Q92731);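 further: recombinant ER-beta bound to coactivator SRC1 peptide in presence of estradiol agonist; inhibitors block coactivator peptide binding and lower the FRET signal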
# T7 sequence (Q92731 whole entry, the tested form may be a part): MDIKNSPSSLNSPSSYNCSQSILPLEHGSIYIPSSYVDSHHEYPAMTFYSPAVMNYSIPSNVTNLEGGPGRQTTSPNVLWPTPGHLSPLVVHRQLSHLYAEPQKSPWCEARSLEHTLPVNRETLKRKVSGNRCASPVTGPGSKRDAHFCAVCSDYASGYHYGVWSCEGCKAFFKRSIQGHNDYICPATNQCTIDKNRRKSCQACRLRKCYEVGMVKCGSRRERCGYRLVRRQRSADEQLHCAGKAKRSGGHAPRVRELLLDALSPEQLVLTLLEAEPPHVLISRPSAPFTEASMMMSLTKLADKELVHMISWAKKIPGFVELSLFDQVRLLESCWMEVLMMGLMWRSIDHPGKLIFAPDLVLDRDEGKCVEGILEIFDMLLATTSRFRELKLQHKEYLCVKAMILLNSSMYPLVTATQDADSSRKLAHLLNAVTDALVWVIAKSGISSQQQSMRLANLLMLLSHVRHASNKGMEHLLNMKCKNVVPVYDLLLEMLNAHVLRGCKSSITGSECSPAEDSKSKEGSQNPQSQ
# [16] = target: T8, Polyadenylate-binding protein 1 (Homo sapiens, UniProt P11940); experiment: MLLE domain peptide-binding blockers, IC50 – biochemical, fluorescence polarization, FITC-PAM2 peptide, dose response (AID 602259); type: functional; conditions: read-out: IC50_Mean
# T8 sequence (P11940 whole entry, the tested form may be a part): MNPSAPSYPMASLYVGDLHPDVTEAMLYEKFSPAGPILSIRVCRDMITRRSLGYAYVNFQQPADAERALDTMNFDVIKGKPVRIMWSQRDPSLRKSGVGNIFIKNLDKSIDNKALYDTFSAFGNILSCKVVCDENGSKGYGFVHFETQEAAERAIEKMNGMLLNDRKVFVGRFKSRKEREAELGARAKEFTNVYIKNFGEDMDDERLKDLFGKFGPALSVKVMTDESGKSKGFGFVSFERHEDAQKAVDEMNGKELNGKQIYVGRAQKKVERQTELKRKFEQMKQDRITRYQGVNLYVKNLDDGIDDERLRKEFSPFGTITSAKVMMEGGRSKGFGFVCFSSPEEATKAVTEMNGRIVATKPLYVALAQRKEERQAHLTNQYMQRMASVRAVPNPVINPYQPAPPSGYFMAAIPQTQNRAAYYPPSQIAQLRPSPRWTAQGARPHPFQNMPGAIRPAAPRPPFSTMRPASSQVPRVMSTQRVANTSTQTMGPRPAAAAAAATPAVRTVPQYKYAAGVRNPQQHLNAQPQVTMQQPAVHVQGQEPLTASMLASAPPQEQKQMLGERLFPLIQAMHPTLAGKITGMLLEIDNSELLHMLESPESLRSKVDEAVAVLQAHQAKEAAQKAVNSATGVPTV
# Estrogen receptor beta [17] = target: T7, Estrogen receptor beta; experiment: blockers of SRC-3 recruitment to ERβ – biochemical, ELISA, streptavidin-HRP readout, orthogonal assay, confirmation (AID 1060)
# [18] = target: T8, Polyadenylate-binding protein 1; experiment: MLLE binding blockers, Cy5 peptide tracer – biochemical, fluorescence polarization, Cy5-PAM2 peptide, secondary, miRNA deadenylation inhibitor project, dose response (AID 602260); type: functional; conditions: read-out: IC50_Mean
# [19] = viability of uninfected HEp-2 cells – cell-based, HTS, cytotoxicity control for RSV inhibitor project, dose response (AID 2410); type: functional; conditions: human respiratory syncytial virus
# [20] = target: Heat shock protein HSP 90-alpha (Homo sapiens, UniProt P07900); type: functional, organism-based
# [21] = Trypanosoma cruzi growth suppression in host cells – NIH3T3 host cells, beta-gal luminescence, confirmation (AID 2044); type: functional, cell-based;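 further: intracellular parasites grown in NIH/3T3 mouse fibroblasts as host cells; luminescent beta-galactosidase reporter signal from transgenic T. cruzi replicating inside host cells; inhibitors lower the luminescence signal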
# [22] = NIH3T3 cell viability loss – ATP luminescence, mouse fibroblasts, counter-screen, dose response (AID 2010); type: functional, cell-based;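 further: cells exposed to compound for about 90 hours before reading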
# HT-1080 = experiment: HT1080 cell viability loss – fluorescence readout (AID 620); type: functional, cell-based; conditions: Homo sapiens
# Melanocortin receptor 4 = Melanocortin receptor 4 (Homo sapiens, UniProt P32245); type: functional, cell-based;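 further: Cell-based assay with luminescence read-out, confirmatory dose-response testing for agonist activity of biased ligands at MC4R; human U2OS cells with tagged receptor and beta-arrestin; potency of agonists that increase receptor coupling to beta-arrestin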
structure (smiles),measurement,setting,value
COc1ccccc1/C=C1\SC(=O)N(CCC(=O)NCCCn2ccnc2)C1=O,AC50,[1],13.5 µM (active)
same,EC50,[2],> 150 µM (not active)
same,EC50,BJ [3],> 133 µM (inactive)
same,EC50,BJ [4],> 150 µM (inconclusive)
same,AC50,INS1,5.64 µM (active)
same,EC50,BJ [5],> 150 µM (not active)
same,EC50,BJ [6],> 150 µM (not active)
Cc1cc(C)nc(NC(=O)CSc2nn(-c3ccccc3)c(=S)s2)n1,IC50,HEK293,> 67.5 µM (inactive)
same,IC50,[7],> 67.5 µM (inactive)
CC1CCN(c2nc(-c3ccccc3)c(C#N)c(=O)[nH]2)CC1,Ki,fMet-Leu-Phe receptor,> 66.7 µM (inactive)
O=C(CSc1nnc(-c2cccnc2)o1)Nc1nccs1,AC50,[8],129 µM (active)
same,IC50,Nonstructural protein 1,10.9 µM (active)
Clc1ccc(-c2ccc(CNCc3ccccn3)o2)cc1,AC50,[8],95.9 µM (active)
same,IC50,cells,3.21 µM (active)
Cc1cc(C(=O)N2CCCC(C(=O)c3ccc(Oc4ccccc4)cc3)C2)[nH]n1 (stereo not drawn),IC50,Cysteine protease ATG4B,28.3 µM (inactive)
same,IC50,Phospholipase A2,11.9 µM (active)
O=C(NCc1ccco1)c1cc2ccccc2c(=O)o1,IC50,Estrogen receptor,30.2 µM (not active)
COc1ccc2c(c1)C(c1ccc(C)o1)=NNC(c1ccccc1)=N2,IC50,Cysteine protease ATG4B,12.9 µM (active)
same,IC50,Phospholipase A2,8.91 µM (active)
O=S(=O)(c1ccccc1)c1nnn2c1nc(NC1CCN(Cc3ccccc3)CC1)c1ccccc12,IC50,Fatty acid synthase [9],1.03 µM (active)
same,IC50,Fatty acid synthase [10],0.793 µM (active)
same,IC50,[11],11.5 µM (active)
CC(=O)Nc1cccc(C(=O)OCC(=O)Nc2nnc(-c3ccccc3)o2)c1,AC50,[8],96.8 µM (active)
O=C(NCc1ccc2c(c1)OCO2)c1c(O)nc2sccn2c1=O,CC50,[12],> 40 µM (active)
same,IC50,[11],80 µM (inactive)
CCCc1ccc(S(=O)(=O)NCCc2ccncc2)cc1,AC50,[13],8.02 µM (active)
same,AC50,[14],34.1 µM (active)
Clc1ccc(OCCn2ccnc2)c(Cl)c1,IC50,HEK293,> 67.5 µM (inactive)
same,IC50,[7],> 67.5 µM (inactive)
O=C(/C=C/c1ccccc1)N1CCC(Cc2ccccc2)CC1,IC50,Beta-galactosidase,> 80 µM (inactive)
COc1cc2c3c(c1)/C(=C1/SC(NC(C)=O)=NC1=O)C(=O)N3C(C)(C)C=C2C,IC50,Estrogen receptor beta [15],3.37 µM (active)
same,IC50,[16],> 66 µM (inactive)
same,IC50,Estrogen receptor beta [17],96.2 µM (not active)
same,IC50,[18],> 66 µM (inactive)
same,Ki,fMet-Leu-Phe receptor,> 66.7 µM (inactive)
COc1cc(N=Nc2ccc3ccccc3c2)ccc1O,AC50,[1],2.65 µM (active)
same,IC50,HEK293,> 67.6 µM (inactive)
same,CC50,[19],23.3 µM (active)
same,AC50,[20],10.7 µM (active)
same,IC50,[7],> 67.6 µM (inactive)
COc1ccccc1N(C(=O)c1ccncc1)c1nc(-c2ccc([N+](=O)[O-])cc2)cs1,EC50,[21],0.448 µM (active)
same,CC50,[19],29.6 µM (active)
same,IC50,Beta-galactosidase,> 80 µM (inactive)
same,EC50,[22],> 60 µM (inconclusive)
CC(C)(C)c1ccc(OCC(O)CSc2nc[nH]n2)cc1 (stereo not drawn),EC50,HT-1080,> 50 µM (not active)
Cc1ccc(S(=O)(=O)N2CCN(C(=O)/C=C/c3ccccc3)CC2)cc1C,IC50,Beta-galactosidase,> 80 µM (inactive)
COc1ccc2cnn(-c3ccccc3)c(=O)c2c1OC,Ki,fMet-Leu-Phe receptor,> 66.7 µM (inactive)
O=C(COC(=O)c1cccc(O)c1)Nc1nnc(-c2ccccc2)o1,AC50,[8],74.4 µM (active)
O=C(O)CC(CC(=O)Nc1ccc(F)c(Cl)c1)c1ccc(Cl)cc1Cl (stereo not drawn),IC50,HEK293,> 67.5 µM (inactive)
same,IC50,[7],> 67.5 µM (inactive)
CC(C)(C)OC(=O)[C@H](Cc1ccccc1)NC(=O)c1ncn2c1c(O)nc1ccc(Br)cc12,IC50,[11],5.17 µM (active)
COc1ccc(C(NC(=O)C2CCN(CCOc3ccc(Cl)cc3Cl)CC2)c2cccs2)cc1 (stereo not drawn),EC50,Melanocortin receptor 4,> 89.2 µM (inactive)
Cc1cc(C)c2c(=O)n3c(nc2c1)C(Cc1ccccc1)NC(=O)c1cc2ccccc2cc1-3 (stereo not drawn),IC50,Beta-galactosidase,> 80 µM (inactive)
CNC(=O)C[C@@H]1CC[C@@H]2[C@H](COc3ccc(NC(=O)Nc4cccc(C)c4)cc3C(=O)N2C)O1,AC50,[14],24.9 µM (active)
O=C(O)/C=C/c1ccccc1Oc1ccc(Cl)cc1Cl,IC50,Cysteine protease ATG4B,11.5 µM (active)
same,IC50,Phospholipase A2,62.7 µM (inactive)
COc1cccc(/C=N/NC(=O)c2cccs2)c1,IC50,HEK293,> 67.5 µM (inactive)
same,IC50,[7],> 67.5 µM (inactive)
